Values quoted from earlier work as cited in patent US12527811B2, “Defibrotide for the prevention and treatment of cytokine release syndrome and neurotoxicity associated with immunodepletion” (priority 2018, dated 2026).
pKd: −log10 of the molar value. Like-named read-outs stand apart in the source and are kept apart here.

How the values were obtained:
[1] = ZUMA-1, one hundred and one adult patients with refractory aggressive B-cell NHL; cited from earlier work
IL-6R = target: T1, IL-6R (Homo sapiens, UniProt P08887); details: read-out: affinity (Kd) for IL-6R; cited from earlier work
T1 sequence (P08887 20-468): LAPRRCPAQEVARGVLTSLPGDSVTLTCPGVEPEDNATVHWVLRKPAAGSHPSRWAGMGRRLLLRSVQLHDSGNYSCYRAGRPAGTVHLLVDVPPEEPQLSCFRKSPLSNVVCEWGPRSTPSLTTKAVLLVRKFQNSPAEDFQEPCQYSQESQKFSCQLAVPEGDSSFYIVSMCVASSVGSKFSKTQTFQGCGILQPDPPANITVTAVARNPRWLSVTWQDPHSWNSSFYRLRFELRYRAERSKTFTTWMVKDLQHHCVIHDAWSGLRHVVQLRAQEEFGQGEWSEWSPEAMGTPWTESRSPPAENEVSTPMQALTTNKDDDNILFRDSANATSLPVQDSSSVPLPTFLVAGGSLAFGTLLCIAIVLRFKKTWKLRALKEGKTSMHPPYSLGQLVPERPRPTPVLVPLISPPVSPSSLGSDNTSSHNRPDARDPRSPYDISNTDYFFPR

[2] = in vivo; cited from earlier work
IL-6 = IL-6 (Homo sapiens, UniProt P05231); details: cited from earlier work
[3] = JULIET, ninety-three adult patients with relapsed or refractory DLBLC; cited from earlier work

Chain of IL-6 (P05231 30-212): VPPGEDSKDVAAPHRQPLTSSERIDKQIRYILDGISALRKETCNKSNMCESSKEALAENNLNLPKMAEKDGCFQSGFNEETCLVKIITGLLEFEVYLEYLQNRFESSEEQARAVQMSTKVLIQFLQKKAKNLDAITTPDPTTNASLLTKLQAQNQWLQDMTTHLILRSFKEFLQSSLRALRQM

For Axicabtagene ciloleucel [Axi-cel], the “rate of grade>3 CRES” value [1] is given as 28% and the “rate of grade>3 CRS” value [1] is given as 13%.

In the case of IL-6: cytokine that binds IL-6R, the pKd (IL-6R) is listed as about 9.00.

In the case of siltuximab, the “effect on CRS symptoms” value [2] is given as “rapid reversal of CRS symptoms in most patients” and the pKd (IL-6) is given as about 12.00.

For tisagenlecleucel, the “rate of grade>3 CRES” value [3] is listed as 12% and the “rate of grade>3 CRS” value [3] is listed as 22%.

In the case of tocilizumab [reference compound], the pKd (IL-6R) is given as 8.60.
